Assay results taken from article PMC2656571 (Journal of medicinal chemistry, 2008).

Columns and labels:
Assay type in all cases: cell-based
HIV-1 IIIB = assay: Inhibition of HIV-1 IIIB replication in MT-2 cells; conditions: CC50 (MT-2 cells) / EC50 (p24 production)
MT-2 cells = assay: In vitro cytotoxicity on MT-2 cells; conditions: human
HIV-1 = assay: HIV-1-mediated cytopathic effect; conditions: data not shown
[1] = tested on: HIV-1-mediated cell-cell fusion; assay: HIV-1-mediated cell-cell fusion; conditions: data not shown

Structure (SMILES): O=C(O)c1ccc(-c2noc(CCl)n2)cc1 [Compound B6, 3-(4-Carboxy)phenyl-5-chloromethyl-1,2,4-oxadiazole]
- SI (selectivity index, CC50/EC50) (HIV-1 IIIB): > 16

Structure (SMILES): Cc1ccc(C)n1Cc1ccc(C(=O)O)cc1 [Compound A19, N-(4-Carboxy)benzyl-2,5-dimethylpyrrole]
- CC50 at 4 days (MT-2 cells): 299 µM
- SI (selectivity index, CC50/EC50) (HIV-1 IIIB): 19.20

Structure (SMILES): O=C(O)c1ccc(Cn2cccc2)cc1 [Compound A9, N-(4-Carboxy)benzylpyrrole]
- CC50 at 4 days (MT-2 cells): > 498 µM
- SI (selectivity index, CC50/EC50) (HIV-1 IIIB): >7.78

Structure (SMILES): O=C(O)c1ccc(-n2cccc2)cc1 [Compound A6, N-(4-Carboxy)phenylpyrrole]
- CC50 at 4 days (MT-2 cells): > 535 µM
- SI (selectivity index, CC50/EC50) (HIV-1 IIIB): >7.72

Structure (SMILES): O=C(O)c1cc(-n2cccc2)ccc1O [Compound A2, N-(3-Carboxy-4-hydroxy)phenylpyrrole]
- CC50 at 4 days (MT-2 cells): > 493 µM
- SI (selectivity index, CC50/EC50) (HIV-1 IIIB): >50.99

Structure (SMILES): O=C(O)Cc1ccc(-n2cccc2)cc1 [Compound A7, N-(4-Carboxymethene)phenylpyrrole]
- CC50 at 4 days (MT-2 cells): > 498 µM
- SI (selectivity index, CC50/EC50) (HIV-1 IIIB): >1.34

Structure (SMILES): Cc1ccc(C)n1-c1ccc(Cl)cc1C(=O)O [Compound A18, N-(4-Chloro-2-carboxy)phenyl-2,5-dimethylpyrrole]
- CC50 at 4 days (MT-2 cells): > 400 µM
- SI (selectivity index, CC50/EC50) (HIV-1 IIIB): >46.73

Structure (SMILES): O=C(O)c1ccc(-c2noc(C(F)(F)F)n2)cc1 [Compound B10, 3-(4-Carboxyphenyl)-5-(trifluoromethyl)-1,2,4-oxadiazole]
- SI (selectivity index, CC50/EC50) (HIV-1 IIIB): > 16

Structure (SMILES): Cc1ccc(C)n1-c1ccc(O)c(C(=O)O)c1 [Compound A12, N-(3-Carboxy-4-hydroxy)phenyl-2,5-dimethylpyrrole]
- Inhibition of HIV-1-mediated cytopathic effect (CPE) (HIV-1): effectively inhibited
- Inhibition of HIV-1-mediated cell-cell fusion [1]: effectively inhibited

Structure (SMILES): O=C(O)Cc1ccc(Cn2cccc2)cc1 [Compound A10, N-(4-Carboxymethene)benzylpyrrole]
- CC50 at 4 days (MT-2 cells): > 465 µM
